From publication PMC3856698 (Biochemistry, 2013)

Columns and labels:
VHZ (LDP3) = target: T1, VHZ (LDP3) (Homo sapiens, UniProt Q9BVJ7); experiment: inhibition of pNPP hydrolysis, competitive model fit; format: biochemical
T1 sequence (Q9BVJ7 1-150): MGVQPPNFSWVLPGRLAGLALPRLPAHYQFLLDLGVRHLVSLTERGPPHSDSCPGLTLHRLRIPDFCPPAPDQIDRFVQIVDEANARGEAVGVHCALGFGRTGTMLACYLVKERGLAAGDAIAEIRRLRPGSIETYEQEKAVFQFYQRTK

SsoPTP = target: T2, SsoPTP (Saccharolobus solfataricus, UniProt Q97VZ7); experiment: biochemical
T2 sequence (Q97VZ7 1-161): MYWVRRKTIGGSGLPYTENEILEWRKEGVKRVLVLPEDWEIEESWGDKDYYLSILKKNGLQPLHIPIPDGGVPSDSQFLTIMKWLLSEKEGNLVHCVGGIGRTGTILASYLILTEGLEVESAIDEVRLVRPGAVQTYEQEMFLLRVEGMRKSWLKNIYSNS

PTP1B = PTP1B (Homo sapiens, UniProt P18031); experiment: biochemical
PTP1B, sequence (P18031 1-321 limits assumed): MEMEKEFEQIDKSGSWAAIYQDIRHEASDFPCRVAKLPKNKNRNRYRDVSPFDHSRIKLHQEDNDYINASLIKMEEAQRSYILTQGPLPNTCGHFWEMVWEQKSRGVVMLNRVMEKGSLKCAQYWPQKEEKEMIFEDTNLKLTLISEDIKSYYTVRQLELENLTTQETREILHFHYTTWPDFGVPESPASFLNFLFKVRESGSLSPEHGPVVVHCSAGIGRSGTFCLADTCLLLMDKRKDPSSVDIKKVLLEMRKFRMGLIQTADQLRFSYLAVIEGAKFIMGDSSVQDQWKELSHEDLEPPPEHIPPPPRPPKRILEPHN

VHR [1] = target: T3, VHR (Homo sapiens, UniProt P51452); experiment: biochemical
T3 sequence (P51452 whole entry): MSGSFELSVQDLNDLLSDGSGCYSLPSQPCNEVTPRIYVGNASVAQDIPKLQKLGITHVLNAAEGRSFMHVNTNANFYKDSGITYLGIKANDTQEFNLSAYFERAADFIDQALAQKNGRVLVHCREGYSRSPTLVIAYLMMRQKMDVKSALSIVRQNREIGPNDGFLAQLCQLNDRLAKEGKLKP

VHR [2] = target: T3, VHR; experiment: pre-steady-state burst kinetics, stopped flow at […] nm; format: biochemical; conditions: read-out: KS

SMILES	Ki (VHZ (LDP3))	further results
O=S(=O)(O)CCN1CCN(CCO)CC1 [HEPES]	26 ± 3 mM	
O=S(=O)(O)O [Sulfate]	4.6 ± 0.3 mM	
[O]=[V]([OH])([OH])[OH] [Vanadate]	0.0027 ± 0.0003 mM	
O=P(O)(O)O [Inorganic phosphate]	0.67 ± 0.05 mM	Ki (SsoPTP): 0.54 ± 0.42 mM; Ki (PTP1B): 3.7 ± 0.1 mM; Ki (VHR [1]): 0.7 ± 0.3 mM; Ki (YopH): 4.4 ± 0.2 mM
O=C(O)CN(CCN(CC(=O)O)CC(=O)O)CC(=O)O [EDTA]	22 ± 2 mM	
NC(CO)(CO)CO [Tris]	88 ± 9 mM	
O=[N+]([O-])c1ccc(OP(=O)(O)O)cc1 [pNPP]		Kd (VHR [2]): 11.8 mM
